In US8097761B2, “Process for production of carotenoid” (JX Nippon Oil & Energy Corporation, priority 2006, dated 2012):

Test: Measurement of the concentration of astaxanthin dissolved at room temperature
Format: physicochemical

Concentration dissolved (solvent 1,4-dioxane (Ethers), room temperature): 0.3 % (wt./wt.)
Concentration dissolved (solvent Acetone (Ketones), room temperature): 0.02 % (wt./wt.)
Concentration dissolved (solvent Benzene (Hydrocarbons), room temperature): 0.05 % (wt./wt.)
Concentration dissolved (solvent Chloroform (Halogens), room temperature): 0.7 % (wt./wt.)
Concentration dissolved (solvent Cyclohexane (Hydrocarbons), room temperature): 0.001 % (wt./wt.)
Concentration dissolved (solvent Cyclohexanone (Ketones), room temperature): 0.2 % (wt./wt.)
Concentration dissolved (solvent Dichloromethane (Halogens), room temperature): 2.3 % (wt./wt.)
Concentration dissolved (solvent Ethanol (Alcohols), room temperature): 0.002 % (wt./wt.)
Concentration dissolved (solvent Hexane (Hydrocarbons), room temperature): 0.003 % (wt./wt.)
Concentration dissolved (solvent Isopropanol (Alcohols), room temperature): 0.002 % (wt./wt.)
Concentration dissolved (solvent Methanol (Alcohols), room temperature): 0.003 % (wt./wt.)
Concentration dissolved (solvent Methylethylketone (Ketones), room temperature): 0.03 % (wt./wt.)
Concentration dissolved (solvent Methylisobutylketone (Ketones), room temperature): 0.02 % (wt./wt.)
Concentration dissolved (solvent Tetrahydrofuran (Ethers), room temperature): 0.7 % (wt./wt.)
Concentration dissolved (solvent Toluene (Hydrocarbons), room temperature): 0.03 % (wt./wt.)
Concentration dissolved (solvents other than halogen solvents, room temperature (summary of Table 1)): ≤ 1%
Structure (SMILES): CC1=C(/C=C/C(C)=C/C=C/C(C)=C/C=C/C=C(C)/C=C/C=C(C)/C=C/C2=C(C)C(=O)[C@@H](O)CC2(C)C)C(C)(C)C[C@H](O)C1=O [astaxanthin]
